How the values were obtained:
[1] = tested on: BT-474; settings: 72 h
Outline: (§1)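 Breast cancer cell lines in 20 µl suspension were added to 384-well plates already holding compound at 5 concentrations, spaced in 10-fold steps across a compound-specific 10,000-fold range, and incubated for 72 h. CellTox Green fluorescence (485/520 nm) was read first to measure cell death, followed by CellTiter-Glo luminescence for viability after 10 min at room temperature. Each plate was normalised to 0.1 % DMSO and a positive kill control. EC50 values came from dose-response curve fits and were censored at the top concentration.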

[2] = tested on: BT-549; settings: 72 h
Outline: as §1

[3] = tested on: CAL-120; settings: 72 h
Outline: as §1

[4] = tested on: CAL-51; settings: 72 h
Outline: as §1

[5] = tested on: CAL-85-1; settings: 72 h
Outline: as §1

[6] = tested on: Hs578T; settings: 72 h
Outline: as §1

[7] = tested on: MCF-10A; settings: 72 h
Outline: as §1

[8] = tested on: MDA-MB-231; settings: 72 h
Outline: as §1

[9] = tested on: MDA-MB-436; settings: 72 h
Outline: as §1

[10] = tested on: MDA-MB-453; settings: 72 h
Outline: as §1

[11] = tested on: MDA-MB-468; settings: 72 h
Outline: as §1

[12] = tested on: SK-BR-3; settings: 72 h
Outline: as §1

[13] = tested on: MDA-MB-453; settings: 72 h; remark: listed apart in the source
Outline: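 Rows with a drug sensitivity score of zero were dropped, and EC50 was taken from the fitted percent-inhibition dose-response curve, censored at the highest concentration. Data were normalised on each plate to vehicle and a positive kill control and checked by Z'-factor. The assay seeded breast cancer cell lines in 20 µl onto 384-well plates pre-loaded with compound in 5 µl medium for 72 h, then added 2.5 µl CellTiter-Blue for 2 h at 37 °C and read fluorescence at 560/590 nm.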

[14] = tested on: CAL-148; assay: normalised viability (% of control), CellTiter-Blue; higher = more viable cells (about 100 = DMSO control); settings: incubation time: 72 h
Procedure: (§2)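 DSRT, CellTiter-Blue viability, 72 h incubation. Signal is normalised to DMSO and benzethonium chloride controls. Value is the normalised response at dose 8.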

[15] = tested on: CAL-51; assay: as above; settings: incubation time: 72 h
Procedure: as §2

[16] = tested on: CAL-85-1; assay: as above; settings: incubation time: 72 h
Procedure: as §2

[17] = tested on: DU-4475; assay: as above; settings: incubation time: 72 h
Procedure: as §2

[18] = tested on: HDQ-P1; assay: as above; settings: incubation time: 72 h
Procedure: as §2

[19] = tested on: MDA-MB-453; assay: as above; settings: incubation time: 72 h
Procedure: as §2

[20] = tested on: BT-474; assay: normalised viability (% of control), CellTiter-Blue; higher = more viable cells (about 100 = DMSO control); settings: incubation time: 72 h
Outline: (§3)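 Each value is normalised viability at a single listed concentration of the series. Breast cancer cell lines in 384-well plates were incubated 72 h with compound and read by CellTiter-Blue fluorescence at 560/590 nm, with vehicle set to 100 and a positive kill control to 0 on every plate.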

[21] = tested on: BT-549; assay: as above; settings: incubation time: 72 h
Outline: as §3

[22] = tested on: CAL-120; assay: as above; settings: incubation time: 72 h
Outline: as §3

[23] = tested on: CAL-85-1; assay: as above; settings: incubation time: 72 h; remark: listed apart in the source
Outline: as §3

[24] = tested on: DU-4475; assay: as above; settings: incubation time: 72 h; remark: listed apart in the source
Outline: as §3

[25] = tested on: HCC1143; assay: as above; settings: incubation time: 72 h
Outline: as §3

[26] = tested on: Hs578T; assay: as above; settings: incubation time: 72 h
Outline: as §3

[27] = tested on: MDA-MB-231; assay: as above; settings: incubation time: 72 h
Outline: as §3

[28] = tested on: MDA-MB-468; assay: as above; settings: incubation time: 72 h
Outline: as §3

[29] = tested on: SK-BR-3; assay: as above; settings: incubation time: 72 h
Outline: as §3

[30] = tested on: HDQ-P1; assay: drug sensitivity score (DSS), CellTiter-Glo (DSS (AUC-based score)); higher = stronger drug effect (viability inhibition or cytotoxicity); extreme values may be limits of the assay; settings: incubation time: 72 h
Outline: (§4)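 The area under the fitted dose-response curve was used to calculate the drug sensitivity score. Cells from breast cancer lines were incubated for 72 h in 384-well plates with compound at 5 concentrations spaced 10-fold over a 10,000-fold range specific to each compound. Plates were read for CellTox Green and then CellTiter-Glo, and normalised to 0.1 % DMSO and a positive kill control.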

[31] = tested on: Hs578T; assay: as above; settings: incubation time: 72 h
Outline: as §4

[32] = tested on: MDA-MB-468; assay: as above; settings: incubation time: 72 h
Outline: as §4

[33] = tested on: HCC1937; settings: 72 h
Outline: as §1

O=C1NC(=O)[C@@H](c2cn3c4c(cccc24)CCC3)[C@@H]1c1c[nH]c2ccccc12 [Tivantinib]
Settings | EC50, CellTiter-Blue viability [nM] | EC50, CellTiter-Glo [nM] | drug sensitivity score
[1] | – | > 1000 | –
[2] | – | 639 | –
[3] | – | 991 | –
[4] | – | 744 | –
[5] | – | 528 | –
[6] | – | 519 | –
[7] | – | 318 | –
[8] | – | 554 | –
[9] | – | 391 | –
[10] | – | 552 | –
[11] | – | 613 | –
[12] | – | 387 | –
[13] | 169 | – | –
[30] | – | – | 0
[31] | – | – | 3.41
[32] | – | – | 2.74

Settings | normalised viability [%]
[14], 300 nM | 97.9
[15], 300 nM | 98.3
[16], 300 nM | 68.8
[17], 300 nM | 102
[18], 300 nM | 90.7
[19], 300 nM | 49.5
[20], 10 nM | 109
[21], 10 nM | 111
[22], 10 nM | 90.8
[23], 1 nM | 105
[24], 1 nM | 97.8
[25], 10 nM | 87.8
[26], 10 nM | 86.5
[27], 10 nM | 116
[28], 10 nM | 104
[29], 10 nM | 77.3

CC[C@]1(O)C[C@H]2CN(CCc3c([nH]c4ccccc34)[C@@](C(=O)OC)(c3cc4c(cc3OC)N(C=O)[C@H]3[C@@](O)(C(=O)OC)[C@H](OC(C)=O)[C@]5(CC)C=CCN6CC[C@]43[C@@H]65)C2)C1 [Vincristine]
Settings | EC50, CellTiter-Blue viability [nM] | EC50, CellTiter-Glo [nM] | drug sensitivity score
[1] | – | 7.55 | –
[2] | – | 1.71 | –
[3] | – | 3.26 | –
[4] | – | 57.3 | –
[5] | – | 2.7 | –
[6] | – | 16.2 | –
[7] | – | 2.93 | –
[8] | – | 11.6 | –
[9] | – | 11.6 | –
[10] | – | 6.53 | –
[11] | – | 2.18 | –
[12] | – | 2.33 | –
[13] | 3.57 | – | –
[30] | – | – | 7.83
[31] | – | – | 16.6
[32] | – | – | 23
[33] | – | 2.89 | –

Settings | normalised viability [%]
[14], 300 nM | 20.4
[14], 3000 nM | 26.8
[15], 300 nM | 17.2
[15], 3000 nM | 10.4
[16], 300 nM | 40.6
[16], 3000 nM | 38.1
[17], 300 nM | 14.8
[17], 3000 nM | 6.84
[18], 300 nM | 36.6
[18], 3000 nM | 38.9
[19], 300 nM | 36
[19], 3000 nM | 30.5
[20], 10 nM | 46.2
[20], 100 nM | 57.2
[21], 10 nM | 29.3
[21], 100 nM | 25.2
[22], 10 nM | 22.9
[22], 100 nM | 20
[23], 1 nM | 96.5
[23], 10 nM | 61.1
[24], 1 nM | 102
[24], 10 nM | 78.8
[25], 10 nM | 34.2
[25], 100 nM | 40.4
[26], 10 nM | 16.6
[26], 100 nM | 19.3
[27], 10 nM | 29.5
[27], 100 nM | 16.1
[28], 10 nM | 50.6
[28], 100 nM | 32.1
[29], 10 nM | 15.6
[29], 100 nM | 15.8
